From patent US6022526A, “Use of texaphyrins in detection of melanin and melanin metabolites diagnostic of melanotic melanoma” (Pharmacyclics, Inc., priority 1997, dated 2000)

How the values were obtained:
[1] = cited from earlier work
carcinoma SMT-F = assay: Pharmacological data with radiolabeled [^14 C]-LuT2BET in SMT-F bearing mice; format: in vivo; conditions: 8.64 μmol/kg
Experimental: A dose of 8.64 μmol/kg LuT2BET produced drug uptake values of 5.1 μg/g, 4.7 μg/g, and 2.8 μg/g at 3 h, 5 h, and 24 h after injection, yielding tumor:muscle ratios of 8.45:1, 10:1 and 7:1, respectively.

[2] = Absorption of LuT2BET in 5% mannitol; format: physicochemical; conditions: 732 nm, 2 mM in 5% mannitol
Experimental: (§1) LuT2BET: The synthesis and chemical analysis of lutetium texaphyrin (LuT2BET, texaphyrin A2 of Tables A and B where M is lutetium) was provided in, for example, U.S. Pat. No. 5,622,946 and in PCT publication W095/10307. LuT2BET was dissolved in 5% mannitol at a 2 mM concentration. LuT2BET absorbs strongly in the far-red region of the electromagnetic spectrum, having a molar extinction coefficient of 23,000 M^-1 cm^-1 in this solution at 732 nm.

B16 melanoma = assay: Biodistribution of LuT2BET in B16 melanoma-bearing mice (fluorescence of tissue extracts and plasma); format: in vivo, C57 mice
Experimental: The present example provides results from a study of the biodistribution of lutetium texaphyrin in melanoma-bearing mice. The biodistribution of LuT2BET was analyzed in C57 mice bearing B16 melanoma at 3 h, 5 h, and 24 h after an intravenous administration of 10 or 20 μmol/kg.
as §1
(§2) Melanoma Cells: B16F10 melanotic melanoma murine cells were obtained from the University of California, San Francisco Cell Culture Facility. These cells are highly pigmented and metastatic in vivo. Cells were grown in Iscove's Modified Dulbeccos' Medium (Gibco, Grand Island, N.Y.) supplemented with 10% fetal bovine serum (JRH Biosciences, Woodland, Calif.) and penicillin/streptomycin (Sigma, St. Louis, Mo.).
Animals and Tumor Model: Inbred C57BL/6N female mice, (C57 mice) seven to eight weeks of age, were obtained from Simonsen Laboratories Inc. (Gilroy, Calif.). […] Tumor size, i.e., length (l), width (w), and height (h), was measured 3 times a week with a vernier caliper. Tumor volumes were calculated using the formula for a hemiellipsoid (Rockwell and Kallman, 1972): […]
Tissue Extraction Procedure: LuT2BET was administered via tail-vein injection at 10 or 20 μmol/kg. Tissues and plasma were analyzed at 3, 5 or 24 h post administration of the photosensitizer. […] Plasma samples (125 μL) were mixed with 10 mM TRITON X-100® and analyzed for texaphyrin content by fluorescence. […] Samples were then analyzed for lutetium texaphyrin content by fluorescence (excitation=450 nm, emission=700-800 nm). […] Texaphyrin accumulation is expressed as μg drug/g tissue (wet weight) or per mL plasma.
Statistical analysis: Values are expressed as mean±SD. […]

[3] = tested on: B16F10 melanotic melanoma murine cells; assay: Confocal laser scanning (fluorescent) microscopy of lutetium texaphyrin in melanoma cells; format: cell-based; conditions: 20 μg/ml LuT2BET, 1 to 24 h
Experimental: Fluorescent Microscopy of Texaphyrin in Melanoma Cells
The present example provides results from fluorescent microscopy studies using lutetium texaphyrin (LuT2BET) incorporated into melanoma cells.
B16F10 melanotic melanoma murine cells as described in Example 2 were incubated with 20 μg/ml LuT2BET for 1 to 24 h in Waymouth's medium supplemented with 15% fetal bovine serum. The adherent cells were washed thoroughly with PBS (3×) and examined using confocal laser scanning microscopy.
as §2

| Compound | tumor specificity ([1]; compared with an ideal detecting agent) | levels in normal brain (caudate) ([1]; in vivo) | tumor:muscle ratio (x:1) (carcinoma SMT-F; 3 h) | drug uptake (tumor) (carcinoma SMT-F; 3 h after injection) | tumor:muscle ratio (x:1) (carcinoma SMT-F; 5 h) | drug uptake (tumor) (carcinoma SMT-F; 5 h after injection) | tumor:muscle ratio (x:1) (carcinoma SMT-F; 24 h) | drug uptake (tumor) (carcinoma SMT-F; 24 h after injection) | molar extinction coefficient [2] | tumor:muscle ratio (x:1) (B16 melanoma; 10 μmol/kg i.v., 5 h) | tumor localizing capacity (B16 melanoma; mouse, in vivo) | uptake into B16 melanoma compared to carcinoma SMT-F (B16 melanoma; mouse, in vivo) | localization at dendritic processes ([3]; listed as Lutetium texaphyrin) | localization in melanosomes ([3]; listed as Lutetium texaphyrin) | localization at dendritic processes ([3]; listed as lutetium texaphyrin) | localization in melanosomes ([3]; listed as lutetium texaphyrin) |
| --- | --- | --- | --- | --- | --- | --- | --- | --- | --- | --- | --- | --- | --- | --- | --- | --- |
| CN1CCc2ccc(O)cc2C(c2ccccc2)C1 (stereo not shown) [BZZ, 2,3,4,5-tetrahydro-3-methyl-5-phenyl-1H-3-benzazepin-7-ol] | significantly less tumor-specific than an ideal detecting agent | levels that may be toxic | – | – | – | – | – | – | – | – | – | – | – | – | – | – |
| CC(=O)[O-].CC(=O)[O-].CCc1c(CC)c2cc3nc(cnc4cc(OCCOCCOCCOC)c(OCCOCCOCCOC)cc4ncc4nc(cc1[n-]2)C(CCCO)=C4C)C(C)=C3CCCO.O.[Lu+3] [LuT2BET] | – | – | 8.45 | 5.1 µg/g | 10 | 4.7 µg/g | 7 | 2.8 µg/g | 23,000 M^-1 cm^-1 | 15 | good tumor localizing capacity | increased uptake | collect at the dendritic processes | highly concentrated in the melanosomes of melanoma cells | collects at the dendritic processes | highly concentrated in the melanosomes of melanotic melanoma cells |
